# Experiments:
# [1] = system: Pseudomonas aeruginosa; assay: Compound was tested for antibacterial activity against gram negative Pseudomonas aeruginosa PAO1; type: functional; conditions: Pseudomonas aeruginosa; read-out: MIC
# [2] = system: Escherichia coli; assay: Compound was tested for antibacterial activity against gram negative Escherichia coli NIHJ JC-2; type: functional
# [3] = system: Klebsiella pneumoniae; assay: Compound was tested for antibacterial activity against gram negative Klebsiella pneumoniae KC-1; type: functional; conditions: Klebsiella pneumoniae; read-out: MIC
# [4] = system: Staphylococcus aureus; assay: Compound was tested for antibacterial activity against gram positive Staphylococcus aureus FDA 209P JC-1; type: functional; conditions: Staphylococcus aureus; read-out: MIC
# [5] = system: Proteus vulgaris; assay: Compound was tested for antibacterial activity against gram negative Proteus vulgaris No.33; type: functional; conditions: Proteus vulgaris; read-out: MIC
# [6] = system: Proteus mirabilis; assay: Compound was tested for antibacterial activity against gram negative Proteus mirabilis JY-10; type: functional; conditions: Proteus mirabilis; read-out: MIC
# [7] = system: Enterococcus faecalis; assay: Compound was tested for antibacterial activity against gram positive Enterococcus faecalis 1373; type: functional; conditions: Enterococcus faecalis; read-out: MIC
# [8] = system: Pseudomonas aeruginosa; assay: Compound was tested for antibacterial activity against gram negative Pseudomonas aeruginosa AK109; type: functional; conditions: Pseudomonas aeruginosa; read-out: MIC
# [9] = system: Pseudomonas aeruginosa; assay: Compound was tested for antibacterial activity against gram negative Pseudomonas aeruginosa K-13; type: functional; conditions: Pseudomonas aeruginosa; read-out: MIC
# [10] = system: Klebsiella oxytoca; assay: Compound was tested for antibacterial activity against gram negative Klebsiella oxytoca GN 10650; type: functional; conditions: Klebsiella oxytoca; read-out: MIC
# [11] = system: Citrobacter freundii; assay: Compound was tested for antibacterial activity against gram negative Citrobacter freundii No.7; type: functional; conditions: Citrobacter freundii; read-out: MIC
# [12] = system: Acinetobacter calcoaceticus; assay: Compound was tested for antibacterial activity against gram negative Acinetobacter calcoaceticus No.4; type: functional; conditions: Acinetobacter calcoaceticus; read-out: MIC
# [13] = system: Staphylococcus aureus; assay: Compound was tested for antibacterial activity against gram positive Staphylococcus aureus JS-1; type: functional
# [14] = system: Serratia marcescens; assay: Compound was tested for antibacterial activity against gram negative Serratia marcescens No.16-2; type: functional; conditions: Serratia marcescens; read-out: MIC
# [15] = system: Burkholderia cepacia; assay: Compound was tested for antibacterial activity against gram negative Burkholderia cepacia 23; type: functional; conditions: Burkholderia cepacia; read-out: MIC
# [16] = system: Escherichia coli; assay: Compound was tested for antibacterial activity against gram negative Escherichia coli ML4707; type: functional; conditions: Escherichia coli; read-out: MIC
# [17] = system: Staphylococcus aureus; assay: Compound was tested for antibacterial activity against gram positive Staphylococcus aureus KP-90-3; type: functional; conditions: Staphylococcus aureus; read-out: MIC
# [18] = system: Staphylococcus aureus; assay: Compound was tested for antibacterial activity against gram positive Staphylococcus aureus smith; type: functional
# [19] = system: Streptococcus pyogenes; assay: Compound was tested for antibacterial activity against gram positive Streptococcus pyogenes cook; conditions: Streptococcus pyogenes; read-out: MIC
# [20] = system: Escherichia coli; assay: Compound was tested for antibacterial activity against gram negative Escherichia coli CSH2/RE45; type: functional; conditions: Escherichia coli; read-out: MIC
# [21] = system: Pseudomonas aeruginosa; assay: Compound was tested for antibacterial activity against gram negative Pseudomonas aeruginosa KP-254; type: functional; conditions: Pseudomonas aeruginosa; read-out: MIC
# [22] = system: Escherichia coli; assay: Compound was tested for antibacterial activity against gram negative Escherichia coli CSH2/RK1; type: functional; conditions: Escherichia coli; read-out: MIC
# [23] = system: Enterobacter cloacae; assay: Compound was tested for antibacterial activity against gram negative Enterobacter cloacae Nek39; type: functional; conditions: Enterobacter cloacae; read-out: MIC
# [24] = system: Citrobacter freundii; assay: Compound was tested for antibacterial activity against gram negative Citrobacter freundii KP-29; type: functional; conditions: Citrobacter freundii; read-out: MIC
# [25] = system: Proteus vulgaris; assay: Compound was tested for antibacterial activity against gram negative Proteus vulgaris KS-134; type: functional; conditions: Proteus vulgaris; read-out: MIC
# [26] = system: Klebsiella pneumoniae; assay: Compound was tested for antibacterial activity against gram negative Klebsiella pneumoniae No.42; type: functional; conditions: Klebsiella pneumoniae; read-out: MIC
# [27] = Escherichia coli, read-out: MIC
# [28] = Staphylococcus aureus, read-out: MIC
SMILES,MIC [1],MIC [3],MIC [4],MIC [5],MIC [6],MIC [7],MIC [8],MIC [9],MIC [10],MIC [11],MIC [12],MIC [14],MIC [15],MIC [16],MIC [17],MIC [18],MIC [19],MIC [20],MIC [21],MIC [22],also measured
COc1c(N2C[C@@H](CN)[C@H](C(F)(F)F)C2)c(F)cc2c(=O)c(C(=O)O)cn(C3CC3)c12.Cl (racemic),1.56 mg/L,0.05 mg/L,0.025 mg/L,0.1 mg/L,0.1 mg/L,0.05 mg/L,1.56 mg/L,12.5 mg/L,0.1 mg/L,0.78 mg/L,0.1 mg/L,0.39 mg/L,1.56 mg/L,0.05 mg/L,0.39 mg/L,≤ 0.006 mg/L,0.025 mg/L,0.78 mg/L,100 mg/L,0.78 mg/L,MIC [2]: 0.1 mg/L; MIC [13]: 0.013 mg/L; MIC [23]: 0.39 mg/L; MIC [24]: 25 mg/L; MIC [25]: 50 mg/L; MIC [26]: 0.2 mg/L
CC1COc2c(N3CCN(C)CC3)c(F)cc3c(=O)c(C(=O)O)cn1c23 (stereo not drawn) [OFLOXACIN],1.56 mg/L,0.05 mg/L,0.39 mg/L,0.05 mg/L,0.05 mg/L,1.56 mg/L,1.56 mg/L,12.5 mg/L,0.1 mg/L,0.39 mg/L,0.78 mg/L,0.78 mg/L,3.13 mg/L,0.025 mg/L,25 mg/L,0.2 mg/L,0.78 mg/L,0.78 mg/L,> 100 mg/L,0.78 mg/L,"MIC [2, 27]: 0.1 mg/L; MIC [13, 28]: 0.39 mg/L; MIC [23]: 0.39 mg/L; MIC [24]: 50 mg/L; MIC [25]: 50 mg/L; MIC [26]: 0.2 mg/L"
NC1CCN(c2nc3c(cc2F)c(=O)c(C(=O)O)cn3-c2ccc(F)cc2F)C1 (stereo not drawn) [TOSUFLOXACIN],0.39 mg/L,0.025 mg/L,0.05 mg/L,0.05 mg/L,0.05 mg/L,0.2 mg/L,0.39 mg/L,6.25 mg/L,0.05 mg/L,0.39 mg/L,0.025 mg/L,0.39 mg/L,0.78 mg/L,0.013 mg/L,12.5 mg/L,0.025 mg/L,0.1 mg/L,0.39 mg/L,> 12.5 mg/L,0.39 mg/L,"MIC [2, 27]: 0.05 mg/L; MIC [13, 28]: 0.05 mg/L; MIC [23]: 0.2 mg/L; MIC [24]: > 12.5 mg/L; MIC [25]: > 12.5 mg/L; MIC [26]: 0.025 mg/L"

# — ChEMBL document CHEMBL1130625, “Synthesis and antibacterial activity of novel 7-(3-substituted-3 or 4-trifluoromethyl-1-pyrrolidinyl)-8-methoxyfluoroquinolones” (1998)
